According to patent US9499495B2, “Quinazolines and azaquinazolines as dual inhibitors of RAS/RAF/MEK/ERK and PI3K/AKT/PTEN/mTOR pathways” (Asana Biosciences, LLC, priority 2013, dated 2016):

Columns and labels:
A375 cells = experiment: XTT assay for cell viability, A375 cells; type: cell-based; details: Homo sapiens, A-375, 72 h
Procedure: Cell lines (A375 ATCC No. CRL-1619, A2058 ATCC No. CRL-11147 and RKO ATCC No. CRL-2577, American Type Culture Collection (ATCC), Manassas Va.) once attaining ˜80% confluency were trypsinized, centrifuged and resuspended in fresh media. Cells (1000-2000/per well) were seeded in 96-well plate and incubated over-night at 37° C. in a 5% CO2 incubator. Compound dilutions were prepared in 100% DMSO followed by dilutions in the respective media. The cells were treated with NCEs for 72 h at 37° C. in 5% CO2 incubator. After 72 h, freshly prepared XTT (1 mg/ml)/PMS (25 μM) solution was added, incubated for 2 to 3 h at 37° C. and the absorbance was measured at 450 nm using an ELISA plate reader. Keeping DMSO control as 100%, the effect of the compound to inhibit the cell proliferation was calculated and the GI50 values were determined using sigmoidal dose response curve fit in GraphPad Prism® v5 software.

pERK in A375 cells = experiment: In Cell Western (ICW) assay, pERK in A375 cells; type: cell-based; details: Homo sapiens, A-375, 3 h treatment
Procedure: Cell lines A375, A2058 and RKO obtained from the ATCC as provided above, were grown, and after attaining ˜80% confluency were trypsinized, centrifuged and resuspended in fresh media. The cells were seeded at the specified density (20,000 to 50,000) in a 96-well format black-well clear bottom plate (Corning) and incubated overnight at 37° C. in a 5% CO2 incubator. The next day, compound dilutions of test compounds were prepared in 100% DMSO followed by dilutions in respective media. Treatment of test compounds was performed for 3 h at 37° C. in 5% CO2 incubator. Following 3 h drug treatment, the conditional media was discarded and the cells were washed once with cPBS (PBS containing 0.1% magnesium chloride hexahydrate and 0.1% anhydrous calcium chloride) and fixed with 4% paraformaldehyde in cPBS for 1 h at rt. After fixing, the cells were given three washes using cPBST (cPBS containing 0.1% Triton™ X-100 reagent) and then blocked using blocking solution (5% skimmed milk powder or 5% BSA prepared in cPBST) for 2 h at rt with shaking at 300 rpm. The cells were again washed thrice with cPBST and incubated with primary antibody phospho-p44/42 MAPK(Erk1/2)(Thr202/204) antibody (Cell Signaling, Catalog # 9101L), phospho S6 ribosomal protein (Cell Signaling, Catalog #4858L), phospho AKT (Thr 308) (Cell Signaling, Catalog #9275) or phospho AKT (Ser 473) (Cell Signaling, Catalog #4060L) in specified dilutions (1:500-1:2500), prepared in respective blocking solutions, in a racker overnight at 4° C. The next day, the cells were washed with 1× Delfia® wash buffer (4×1 wash) and incubated with secondary antibody (Delfia®-Eu-N1 labeled anti-rabbit antibody; PerkinElmer, Catalog #AD0105; dilutions: 1:2000 to 1:6000 in Delfia® assay buffer (PerkinElmer, Catalog #1244-111)) for 2 h at rt in the dark at 300 rpm. The cells were then given four washes with 1× Delfia® wash buffer and incubated with Wallac Delfia® Enhancement solution (100 μL; PerkinElmer, Catalog #1244-105) for 20 min at rt in the dark at 300 rpm. The fluorescence emission was then read at 615 nm with an excitation wavelength of 340 nm using a Victor V5 Fluorometer (Perkin Elmer, US). The cells were then washed once with 1×cPBS and incubated with 100 μL of 0.5 mg/mL of Hoechst 33258 dye prepared in cPBS and read at 460 nm with 355 nm excitation, thereby evaluating the correction factor.
The % inhibition for the test compounds of formula (I) (new chemical entities (NCEs)) was calculated keeping DMSO control as 0% and the IC50 values were determined using sigmoidal dose response curve fit in GraphPad Prism® v5 software.

B-RAFV600E = biological target: T1, B-RAFV600E (Homo sapiens, UniProt P15056, V600E); experiment: B-RAFV600E radiometric assay; type: biochemical; details: read-out: Kinase assay B-Raf
T1 construct: purchased Millipore, USA 14-557
Procedure: Compound inhibition for B-RAFV600E was determined through radiometric assay using a BRAF enzyme (Catalog No. 14-557, Millipore, USA) and MEK-K97M protein as a substrate (Catalog No. 0785-0000-1, ProqQinase GmbH, Germany). The B-RAF kinase catalyzes the phosphorylation of MEK protein in the presence of gamma ATP (PLC-101, Jonaki, CCMB, Hyderabad), cold ATP and Mg^2+.
The phosphorylated protein product is detected by the scintillation counter Topcount® machine (Perkin Elmer). This assay has been adapted from the method previously reported by Yeh et al. (2007, Clinical Cancer Research; 13, 1576-1583). The assay measures the B-RAF mediated transfer of 32P from the gamma position of radiolabeled ATP onto MEK1-KD. The labeled phosphorylated protein was measured in MicroBeta® Trilux Counter (Perkin Elmer). The assay was validated with reference compounds RAF1 Kinase Inhibitor I and ZM 336372 inhibitor which are reported to be inhibitors of B-RAF enzyme (Lackey, 2000, Medicinal Chemistry Letters; 10(3):223-226; Kupcho, “Fluorescent High throughput kinase cascade assays for inhibitor characterization, RAF-MEK-ERK pathway, www.invitrogen.com, and Hall-Jackson, 1999, Chemical Biology; 6(8):559-568). B-RAF enzyme mixture (13 μL) was added to compound wells containing 2 μL of the NCE in 1% DMSO and incubated for 45 min at rt on a shaking incubator at 300 rpm. MEK-K97M (0.5 μg) and cold ATP to a final concentration of 5 μM, and hot ATP 0.1 μCi in a volume of 10 μL was added to each well and incubated for 2 h at rt on a shaking incubator at 300 rpm. The reaction was stopped by addition of […] (13 μL) containing ATP (1 mM: 495 μL 1N HCl and 5 μL 100 mM ATP). Aliquot (30 μL) was then transferred to the center of a 2 cm×2 cm P81 paper. P81 paper was washed 8×5 min each with ortho-phosphoric acid (0.5%). P81 papers are washed twice with acetone for […] Assay squares were allowed to dry for […] at 37° C. P81 paper are transferred to Optiplate™ (Perkin Elmer) and counted in a Topcount® counter (Perkin Elmer). Data was plotted against the compound concentration to generate dose-response curves and IC50 values were determined using a sigmoidal dose response curve fit GraphPad Prism® v5 software.

mTOR kinase = biological target: T2, mTOR kinase (Homo sapiens, UniProt P42345); experiment: mTOR kinase TR-FRET assay; type: biochemical
T2 construct: purchased Millipore, US
Procedure: Compound inhibition for mTOR kinase was determined by homogeneous TR-FRET assay using ULight-p70 S6K (Thr 389) peptide as substrate. mTOR enzyme (Millipore, US; […]) was used in the assay. The reaction buffer was HEPES (50 mM, pH 7.5), EGTA (1 mM), and MnCl2 (3 mM). Test compound was pre-incubated with mTOR for 30 min followed by 50 nM ULight-p70 S6K (Thr 389) peptide along with ATP (20 μM).
After incubating the reaction mixture for 30 min, Eu-labeled anti-phospho-substrate antibody (1 nM, Perkin Elmer, USA) was added. Fluorescence emission at […] was measured upon excitation at 340 nm. The compound dilution was carried out in 100% DMSO followed by a buffer dilution. The kinase reaction was incubated for 1 h at rt followed by the addition of substrate-ATP mix and incubated at rt for 1 h. The reaction was terminated by the addition of EDTA followed by the addition of detection mix. IC50 values were determined using a sigmoidal dose response curve fit, GraphPad Prism® v5 software.

T2 sequence (P42345 1362-2549 limits assumed): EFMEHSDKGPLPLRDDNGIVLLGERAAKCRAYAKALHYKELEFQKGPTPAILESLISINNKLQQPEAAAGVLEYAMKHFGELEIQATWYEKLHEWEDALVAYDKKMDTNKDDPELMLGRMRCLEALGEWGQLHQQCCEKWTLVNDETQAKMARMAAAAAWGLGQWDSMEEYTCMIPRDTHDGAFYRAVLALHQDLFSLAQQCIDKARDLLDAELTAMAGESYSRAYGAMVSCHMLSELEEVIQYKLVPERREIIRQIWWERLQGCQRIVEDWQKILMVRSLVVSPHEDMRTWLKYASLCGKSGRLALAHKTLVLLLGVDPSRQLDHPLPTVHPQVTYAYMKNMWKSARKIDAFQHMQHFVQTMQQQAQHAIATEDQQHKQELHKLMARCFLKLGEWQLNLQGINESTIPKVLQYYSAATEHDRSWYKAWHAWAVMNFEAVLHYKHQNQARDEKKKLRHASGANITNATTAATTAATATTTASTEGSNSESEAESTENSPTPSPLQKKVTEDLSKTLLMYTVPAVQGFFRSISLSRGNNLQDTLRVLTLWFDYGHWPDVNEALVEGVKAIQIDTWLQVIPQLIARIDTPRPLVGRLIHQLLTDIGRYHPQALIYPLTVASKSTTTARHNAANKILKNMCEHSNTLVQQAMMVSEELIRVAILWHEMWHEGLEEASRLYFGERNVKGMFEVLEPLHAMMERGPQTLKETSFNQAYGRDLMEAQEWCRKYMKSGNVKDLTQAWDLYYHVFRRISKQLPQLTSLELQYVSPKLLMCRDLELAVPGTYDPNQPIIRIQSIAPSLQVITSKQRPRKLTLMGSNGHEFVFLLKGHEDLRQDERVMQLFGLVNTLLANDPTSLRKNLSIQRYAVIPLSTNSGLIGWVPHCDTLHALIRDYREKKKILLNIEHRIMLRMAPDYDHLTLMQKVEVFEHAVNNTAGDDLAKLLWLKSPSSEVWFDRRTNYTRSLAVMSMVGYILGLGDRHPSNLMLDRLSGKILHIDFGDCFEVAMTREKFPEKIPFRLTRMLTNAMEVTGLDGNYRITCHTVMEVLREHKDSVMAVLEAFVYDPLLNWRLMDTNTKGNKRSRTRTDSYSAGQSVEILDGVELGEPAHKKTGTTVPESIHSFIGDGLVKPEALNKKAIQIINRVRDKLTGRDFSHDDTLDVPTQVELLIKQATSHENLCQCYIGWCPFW
T1 sequence (P15056 416-766 V600E limits assumed): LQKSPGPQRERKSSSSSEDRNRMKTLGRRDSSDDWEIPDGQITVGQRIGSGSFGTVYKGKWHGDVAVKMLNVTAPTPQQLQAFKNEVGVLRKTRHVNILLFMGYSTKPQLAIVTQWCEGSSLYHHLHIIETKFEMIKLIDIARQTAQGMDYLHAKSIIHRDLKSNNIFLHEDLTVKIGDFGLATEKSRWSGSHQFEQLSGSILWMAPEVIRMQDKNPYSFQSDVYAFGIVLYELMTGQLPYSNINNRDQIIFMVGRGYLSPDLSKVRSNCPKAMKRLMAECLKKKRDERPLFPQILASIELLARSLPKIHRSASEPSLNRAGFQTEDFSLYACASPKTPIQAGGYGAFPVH

Row | SMILES | IC50 (A375 cells) | IC50 (pERK in A375 cells) | IC50 (B-RAFV600E) | IC50 (mTOR kinase)
1 | CCCS(=O)(=O)Nc1cccc(-c2cc(OC)c3nc(-n4c(C(F)F)nc5ccccc54)nc(N4CCOCC4)c3c2)c1F [Example 9, N-(3-(2-(2-(difluoromethyl)-1H-benzo[d]imidazol-1-yl)-8-methoxy-4-morpholinoquinazolin-6-yl)-2-fluorophenyl)propane-1-sulfonamide] | 0.1 to 1 µM | 0.1 to 1 µM | 0.001 to 0.1 µM | 0.1 to 1 µM
2 | COc1cc(-c2cccc(NS(=O)(=O)c3c(F)cccc3F)c2F)cc2c(N3CCOCC3)nc(-c3cnc(N)nc3)nc12 [Example 13, N-(3-(2-(2-aminopyrimidin-5-yl)-8-methoxy-4-morpholinoquinazolin-6-yl)-2-fluorophenyl)-2,6-difluorobenzenesulfonamide] | 0.1 to 1 µM | 0.1 to 1 µM | 0.001 to 0.1 µM | 0.1 to 1 µM
3 | CCCS(=O)(=O)Nc1cccc(-c2cc(OC)c3nc(-c4ccc(NC(=O)NC)cc4)nc(N4CCOCC4)c3c2)c1F [Example 14, N-(2-fluoro-3-(8-methoxy-2-(4-(3-methylureido)phenyl)-4-morpholinoquinazolin-6-yl)phenyl)propane-1-sulfonamide] | 0.1 to 1 µM | 0.1 to 1 µM | 0.1 to 1 µM | 0.001 to 0.1 µM
4 | COc1cc(-c2cccc(NS(=O)(=O)c3c(F)cccc3F)c2F)cc2c(N3CCOCC3)nc(-c3ccc(N)nc3)nc12 [Example 19, N-(3-(2-(6-aminopyridin-3-yl)-8-methoxy-4-morpholinoquinazoIin-6-yl)-2-fluorophenyl)-2,6-difluorobenzenesulfonamide] | 0.1 to 1 µM | 0.1 to 1 µM | 0.001 to 0.1 µM | 0.1 to 1 µM
5 | COc1cc(-c2cccc(NS(=O)(=O)CCCF)c2F)cc2c(N3CCOCC3)nc(-c3ccc(NC(C)=O)cc3)nc12 [Example 125, N-(4-(6-(2-fluoro-3-(3-fluoropropylsulfonamido)phenyl)-8-methoxy-4-morpholinoquinazolin-2-yl)phenyl)acetamide] |  | 0.001 to 0.1 µM | 0.1 to 1 µM | 0.001 to 0.1 µM

More lines, now with the values ahead:

Row | IC50 (A375 cells) | IC50 (pERK in A375 cells) | IC50 (B-RAFV600E) | IC50 (mTOR kinase) | SMILES
6 | 0.1 to 1 µM | 0.1 to 1 µM | 0.001 to 0.1 µM | 0.001 to 0.1 µM | CCCS(=O)(=O)Nc1ccc(F)c(-c2cc(OC)c3nc(-c4cnc(N)nc4)nc(N4CCOCC4)c3c2)c1F [Example 6, N-(3-(2-(2-aminopyrimidin-5-yl)-8-methoxy-4-morpholinoquinazolin-6-yl)-2,4-difluorophenyl)propane-1-sulfonamide]
7 | 0.1 to 1 µM | 0.1 to 1 µM | 0.1 to 1 µM | 0.1 to 1 µM | CCCS(=O)(=O)Nc1cccc(-c2cc(OC)c3nc(-c4cnc(N)nc4)nc(N4CCOCC4)c3c2)c1F [Example 15, N-(3-(2-(2-aminopyrimidin-5-yl)-8-methoxy-4-morpholinoquinazolin-6-yl)-2-fluorophenyl)propane-1-sulfonamide]
8 | 0.1 to 1 µM | 0.1 to 1 µM | 0.001 to 0.1 µM | 0.001 to 0.1 µM | CCCS(=O)(=O)Nc1cccc(-c2cc(OC)c3nc(-c4ccc(N)nc4)nc(N4CCOCC4)c3c2)c1F [Example 17, N-(3-(2-(6-aminopyridin-3-yl)-8-methoxy-4-morpholinoquinazolin-6-yl)-2-fluorophenyl)propane-1-sulfonamide]
9 | 0.1 to 1 µM | 0.1 to 1 µM | 0.1 to 1 µM | 0.1 to 1 µM | CCCS(=O)(=O)Nc1cccc(-c2cc(OC)c3nc(-c4ccc(N)nc4F)nc(N4CCOCC4)c3c2)c1F [Example 18, N-(3-(2-(6-amino-2-fluoropyridin-3-yl)-8-methoxy-4-morpholinoquinazolin-6-yl)-2-fluorophenyl)propane-1-sulfonamide]
10 | 0.1 to 1 µM | 0.1 to 1 µM | 0.001 to 0.1 µM | 0.1 to 1 µM | COc1cc(-c2cccc(NS(=O)(=O)CC(C)C)c2F)cc2c(N3CCOCC3)nc(-c3cnc(N)nc3)nc12 [Example 20, N-(3-(2-(2-aminopyrimidin-5-yl)-8-methoxy-4-morpholinoquinazolin-6-yl)-2-fluorophenyl)-2-methylpropane-1-sulfonamide]
11 | 1 to 10 µM | 0.1 to 1 µM | 0.1 to 1 µM | 0.1 to 1 µM | CCS(=O)(=O)Nc1cccc(-c2cc(OC)c3nc(-c4cnc(N)nc4)nc(N4CCOCC4)c3c2)c1F [Example 21, N-(3-(2-(2-aminopyrimidin-5-yl)-8-methoxy-4-morpholinoquinazolin-6-yl)-2-fluorophenyl) \ethanesulfonamide]
12 | 0.1 to 1 µM | 0.001 to 0.1 µM | 0.001 to 0.1 µM | 0.1 to 1 µM | COc1cc(-c2cccc(NS(=O)(=O)c3cc(F)ccc3F)c2F)cc2c(N3CCOCC3)nc(-c3cnc(N)nc3)nc12 [Example 22, N-(3-(2-(2-aminopyrimidin-5-yl)-8-methoxy-4-morpholinoquinazolin-6-yl)-2-fluorophenyl)-2,5-difluorobenzenesulfonamide]
